The nature of assay [1]: Shn3 3'UTR reporter inhibitors, dose response, cell-based, Clone20 osteoblasts, firefly luciferase, cherry-picked (AID 624132).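 Further: firefly luciferase luminescence from reporter carrying the Shn3 3'UTR in osteoblasts.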 The assay is classed as functional.
For the next assay, the target named is T1, Protein skinhead-1 (Caenorhabditis elegans, UniProt P34707).
T1 sequence (P34707 whole entry): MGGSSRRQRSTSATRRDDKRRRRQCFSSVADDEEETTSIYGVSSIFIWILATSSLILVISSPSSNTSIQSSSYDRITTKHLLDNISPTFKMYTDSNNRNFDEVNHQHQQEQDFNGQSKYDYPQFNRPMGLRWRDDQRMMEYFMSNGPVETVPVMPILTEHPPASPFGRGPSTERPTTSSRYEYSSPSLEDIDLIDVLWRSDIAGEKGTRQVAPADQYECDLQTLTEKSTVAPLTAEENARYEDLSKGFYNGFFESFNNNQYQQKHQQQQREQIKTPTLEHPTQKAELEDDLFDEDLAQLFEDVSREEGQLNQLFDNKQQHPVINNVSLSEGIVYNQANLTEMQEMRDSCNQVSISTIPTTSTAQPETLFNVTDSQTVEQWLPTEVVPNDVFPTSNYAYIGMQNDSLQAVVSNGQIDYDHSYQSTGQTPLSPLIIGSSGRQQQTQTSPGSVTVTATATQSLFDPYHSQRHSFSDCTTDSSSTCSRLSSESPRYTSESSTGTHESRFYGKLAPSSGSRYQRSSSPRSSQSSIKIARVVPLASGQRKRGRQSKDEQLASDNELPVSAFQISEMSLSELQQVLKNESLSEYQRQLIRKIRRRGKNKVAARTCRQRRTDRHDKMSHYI
The assay is classed as functional.

The target in the next assay is Cytochrome P450 3A4 (Homo sapiens, UniProt P08684).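 Further: CYP3A4 tested as one member of a cytochrome P450 panel screen.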
Sequence of Cytochrome P450 3A4 (P08684 whole entry): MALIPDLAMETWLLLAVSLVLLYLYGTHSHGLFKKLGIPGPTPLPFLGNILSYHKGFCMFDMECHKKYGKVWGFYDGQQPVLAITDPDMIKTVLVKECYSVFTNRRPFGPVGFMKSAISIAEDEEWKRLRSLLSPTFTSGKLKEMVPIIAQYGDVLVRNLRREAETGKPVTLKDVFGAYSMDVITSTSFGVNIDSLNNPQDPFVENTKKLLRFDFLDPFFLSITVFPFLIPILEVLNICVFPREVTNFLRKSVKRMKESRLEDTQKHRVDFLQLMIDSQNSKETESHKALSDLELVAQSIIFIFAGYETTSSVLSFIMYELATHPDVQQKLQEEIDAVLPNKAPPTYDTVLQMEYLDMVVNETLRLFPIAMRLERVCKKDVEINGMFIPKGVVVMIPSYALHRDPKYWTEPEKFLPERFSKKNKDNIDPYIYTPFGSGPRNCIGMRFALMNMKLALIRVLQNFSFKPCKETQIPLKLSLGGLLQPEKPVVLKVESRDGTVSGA
The nature of assay [2]: Luminescence Cell-Based Dose Retest to Confirm Inhibitors of Cancer Stem Cells. [Related pubchem assays (depositor defined):AID2717, AID2721]. In kind it is functional. The following applies: Homo sapiens.
In assay [3] the target is T2, Calpain-2 catalytic subunit (Sus scrofa, UniProt P43367).
T2 sequence (P43367 whole entry): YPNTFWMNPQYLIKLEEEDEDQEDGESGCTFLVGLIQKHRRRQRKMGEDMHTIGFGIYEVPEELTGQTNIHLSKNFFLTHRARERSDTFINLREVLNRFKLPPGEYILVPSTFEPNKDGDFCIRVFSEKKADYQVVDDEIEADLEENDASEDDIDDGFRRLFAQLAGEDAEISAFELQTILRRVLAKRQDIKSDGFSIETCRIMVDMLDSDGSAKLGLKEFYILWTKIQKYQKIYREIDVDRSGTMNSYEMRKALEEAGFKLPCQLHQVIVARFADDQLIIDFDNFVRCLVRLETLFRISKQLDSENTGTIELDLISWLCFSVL
The experiment in a line: pig calpain II inhibitor potency, dose response, biochemical, fluorogenic peptide substrate (AID 1420). The assay is classed as functional.

The nature of assay [4]: inhibitors of SNCA 5'UTR-driven reporter translation, confirmation, H4 neuroglioma cells, luminescence (AID 1988). The assay is classed as functional, cell-based.
Assay [5] is described as follows: inhibitors of firefly luciferase expression or activity, dose response, H4 neuroglioma cells, luminescence (AID 1990). In kind it is functional, cell-based.
The target of assay [6] is T3, Heat shock factor protein 1 (Mus musculus, UniProt P38532).
T3 sequence (P38532 whole entry): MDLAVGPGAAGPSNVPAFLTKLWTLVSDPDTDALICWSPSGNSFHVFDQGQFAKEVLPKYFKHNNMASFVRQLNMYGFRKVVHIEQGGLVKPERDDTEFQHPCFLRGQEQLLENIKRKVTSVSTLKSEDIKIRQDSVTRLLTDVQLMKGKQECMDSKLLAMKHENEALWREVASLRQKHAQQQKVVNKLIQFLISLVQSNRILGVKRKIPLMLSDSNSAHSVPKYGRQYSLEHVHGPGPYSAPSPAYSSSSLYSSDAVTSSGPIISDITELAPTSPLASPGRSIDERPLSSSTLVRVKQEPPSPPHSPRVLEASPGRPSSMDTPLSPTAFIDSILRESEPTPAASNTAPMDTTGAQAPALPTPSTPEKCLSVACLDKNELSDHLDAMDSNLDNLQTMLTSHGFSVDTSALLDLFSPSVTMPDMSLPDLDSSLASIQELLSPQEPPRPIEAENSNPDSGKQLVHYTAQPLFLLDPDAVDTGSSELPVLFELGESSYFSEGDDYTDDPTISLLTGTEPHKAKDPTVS
The experiment in a line: inhibition of MG132-induced HSE-luciferase signal, confirmation, cell-based, NIH3T3, luminescence, dose retest (AID 2382).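 Further: NIH3T3 fibroblasts with HSF1-driven luciferase reporter stressed by proteasome inhibitor MG132; luminescence from HSF1-driven luciferase expression after 8 hours of MG132 stress.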 In kind it is functional.

Assay [7] is described as follows: HEp-2 cell cytotoxicity, dose response, cytotoxicity control for RSV inhibitor project, HTS (AID 2410). In kind it is functional. The following applies: human respiratory syncytial virus.
Another assay addresses T4, Protein RecA (Mycobacterium tuberculosis, UniProt P9WHJ3).
T4 sequence (P9WHJ3 whole entry): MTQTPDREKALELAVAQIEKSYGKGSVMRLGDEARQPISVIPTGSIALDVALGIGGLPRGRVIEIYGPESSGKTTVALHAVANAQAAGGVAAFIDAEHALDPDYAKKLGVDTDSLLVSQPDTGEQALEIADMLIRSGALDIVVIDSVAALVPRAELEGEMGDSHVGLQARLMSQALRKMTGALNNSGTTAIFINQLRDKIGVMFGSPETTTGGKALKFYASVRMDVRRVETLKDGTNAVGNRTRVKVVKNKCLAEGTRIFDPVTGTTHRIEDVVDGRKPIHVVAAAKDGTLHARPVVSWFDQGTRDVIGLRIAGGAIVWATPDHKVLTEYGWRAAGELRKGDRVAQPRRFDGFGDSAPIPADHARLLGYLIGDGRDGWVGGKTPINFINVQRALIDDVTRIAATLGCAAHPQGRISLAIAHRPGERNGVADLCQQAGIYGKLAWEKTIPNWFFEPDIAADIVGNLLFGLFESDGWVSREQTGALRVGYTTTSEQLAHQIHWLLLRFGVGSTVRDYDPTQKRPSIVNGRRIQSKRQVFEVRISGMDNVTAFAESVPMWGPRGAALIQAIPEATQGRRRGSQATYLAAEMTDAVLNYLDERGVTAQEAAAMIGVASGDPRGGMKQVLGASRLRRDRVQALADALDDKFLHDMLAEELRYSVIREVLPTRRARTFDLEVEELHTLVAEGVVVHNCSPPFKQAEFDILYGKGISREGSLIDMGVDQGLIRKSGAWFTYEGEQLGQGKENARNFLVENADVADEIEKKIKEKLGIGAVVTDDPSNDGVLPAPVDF
The experiment in a line: Fluorescence Cell-Free Homogeneous Dose Retest to Identify Inhibitors of RecA-Intein Splicing Activity. [Related pubchem assays (depositor defined):AID2097, AID2223, AID489010, AID492950]. In kind it is functional.

The target in assay [8] is T5, Replicative DNA helicase DnaB (Mycobacterium tuberculosis, UniProt P9WMR3).
T5 sequence (P9WMR3 whole entry): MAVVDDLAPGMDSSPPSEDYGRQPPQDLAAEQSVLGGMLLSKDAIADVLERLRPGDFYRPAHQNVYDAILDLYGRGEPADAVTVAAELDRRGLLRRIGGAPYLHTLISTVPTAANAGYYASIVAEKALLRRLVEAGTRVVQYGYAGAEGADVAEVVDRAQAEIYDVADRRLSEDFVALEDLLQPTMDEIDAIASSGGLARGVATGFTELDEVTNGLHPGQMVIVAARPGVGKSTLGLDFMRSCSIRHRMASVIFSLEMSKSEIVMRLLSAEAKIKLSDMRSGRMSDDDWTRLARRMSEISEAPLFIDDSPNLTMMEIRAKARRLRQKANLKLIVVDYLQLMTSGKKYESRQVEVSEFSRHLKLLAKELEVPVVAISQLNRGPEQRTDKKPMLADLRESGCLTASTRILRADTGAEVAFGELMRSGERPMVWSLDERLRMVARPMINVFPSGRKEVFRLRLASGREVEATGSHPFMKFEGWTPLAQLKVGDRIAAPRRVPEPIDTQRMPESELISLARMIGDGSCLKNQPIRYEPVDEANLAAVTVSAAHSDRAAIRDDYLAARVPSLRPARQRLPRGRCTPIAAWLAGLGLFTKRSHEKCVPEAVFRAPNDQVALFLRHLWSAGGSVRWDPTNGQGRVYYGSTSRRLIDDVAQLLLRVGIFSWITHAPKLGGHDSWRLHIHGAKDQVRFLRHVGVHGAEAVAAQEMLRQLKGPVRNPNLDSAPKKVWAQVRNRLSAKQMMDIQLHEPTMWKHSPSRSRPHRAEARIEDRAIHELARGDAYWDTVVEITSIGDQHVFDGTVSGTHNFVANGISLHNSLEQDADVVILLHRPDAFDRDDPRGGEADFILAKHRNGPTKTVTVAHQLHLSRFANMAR
Nature of the assay: DnaB intein splicing inhibitors, dose response, biochemical, cell-free fluorescence (AID 449749). The assay is classed as functional.

From ChEMBL document CHEMBL1201862, “PubChem BioAssay data set” (2004) come the findings set out here.

For orientation: AC50 means the midpoint of the concentration-response curve, whichever way the signal moves. Broadly, the IC50 is the concentration that gives 50% inhibition. By EC50 is commonly meant the midpoint of the concentration-response curve. What is called CC50 is the concentration giving 50% cytotoxicity.

Active and inactive are the calls of the source. A value given as a limit tells only on which side of the number the result lay.

Consider `CCN1CCN(Cc2ccc(NC(=O)c3cc(NC(=O)c4cc5cccc(OC)c5o4)cc(OC)c3)cc2C(F)(F)F)CC1`, for which the AC50 in assay [1] was 10.2 µM (active).

`Cn1cc([C@@H]2C[C@H]3CN(Cc4cccc(Cl)c4)C(=O)[C@]34CCCN24)c2ccccc21`: on Protein skinhead-1, the IC50 was > 100 µM (inactive).

As to `COC(=O)c1c(NC(=O)c2ccco2)sc2c1CCC2`, the IC50 at Protein skinhead-1 was > 100 µM (inactive). Moreover, the figures for the AC50 (at Cytochrome P450 3A4; in assay [2]) were 39.8 µM (inconclusive) and 68.2 µM (active), respectively.

With `CCCOC(=O)c1cc(O)nc2ccccc12`, the IC50 on Protein skinhead-1 was > 100 µM (inactive).

Regarding `O=[N+]([O-])c1ccc(NCc2ccc(Cl)cc2)nc1`, the IC50 on Protein skinhead-1 was 32.1 µM (active); in assay [3], 12.6 µM (not active).

Take `COc1ccc(NC(=O)c2cccc(N3C(=O)c4ccc(C(=O)Nc5ccc(OC)c(O)c5)cc4C3=O)c2)cc1O`: the half-maximal effective concentration (EC50) is 13.4 µM (active) in [4] and 15 µM (active) in assay [5].

Regarding `CCCNC(=O)CCn1nc(-c2ccc(Cl)cc2)c2ccccc2c1=O`, the EC50 in assay [4] was > 120 µM (not active); in [5] it was 18.5 µM (active).

With `CCCCOC(=O)Nc1ccc(N2CCCCC2)cc1`, at Protein skinhead-1, the IC50 is 10.6 µM (active).

Consider `CCOC(=O)CN1CC23C=CC(O2)C(C(=O)NCc2cccs2)C3C1=O` (configuration not stated), for which the IC50 on Protein skinhead-1 was > 100 µM (inactive).

As for `c1ccc(CSc2ncnc3ccccc23)cc1`, at Protein skinhead-1, the IC50 is 36.1 µM (active).

Consider `CC1CCCCN1S(=O)(=O)c1ccc(C(=O)Nc2sccc2C(N)=O)cc1` (configuration not stated), for which the IC50 at Protein skinhead-1 was > 100 µM (inactive). In addition, the concentration giving a half-maximal response (EC50) in assay [6] is recorded as > 195 µM (not active). Besides, the CC50 in [7] is 19.2 µM (active).

As for `Fc1ccccc1/C=C/c1ccc2ccccc2n1`, at Protein skinhead-1, the IC50 is 19.2 µM (active).

In the case of `Cc1cc(C)c2c(c1)-c1c(ssc1=S)C(C)(C)N2C(=O)CSc1nncn1C`, the half-maximal effective concentration (EC50) on Protein RecA was 8.17 µM (active). Further, the half-maximal activity concentration (AC50) in assay [8] was 5.32 µM (active).

On to `CCOC(=O)c1cnc(N)nc1C(F)(F)F`, for which the EC50 on Protein RecA was > 380 µM (inactive). Further, in [8], the AC50 was > 380 µM (inactive).

Regarding `CCc1n[nH]c2c1C1(CCN(C(=O)c3ccccc3)CC1)C(C#N)=C(N)O2`, the EC50 on Protein RecA was 4.3 µM (active). In [8], the AC50 is 24.6 µM (active).

Consider `CC(C)CS(=O)(=O)C1=NSC2=NC(=O)/C(=C\c3ccc(OC(=O)c4ccco4)cc3)C(=N)N21`, for which the 50% effective concentration (EC50) on Protein RecA was 13.8 µM (active). For the same molecule, the AC50 in assay [8] was > 380 µM (inactive).

Take `CC(Oc1ccc(F)cc1)C(=O)Oc1ccc(N(C)S(=O)(=O)c2ccccc2)cc1` (configuration not stated): the EC50 at Protein RecA is 58.5 µM (active). In addition, the AC50 in assay [8] is 0.725 µM (active).

In the case of `COc1nc(-c2ccccc2)nnc1-c1ccccc1`, at Protein skinhead-1, the 50% inhibitory concentration (IC50) was 23 µM (active).

`O=[N+]([O-])c1cccc2ccc(/C=C/c3ccc(Cl)cc3)nc12`: the IC50 at Protein skinhead-1 was > 100 µM (inactive). The CC50 in assay [7] is 20 µM (active).

On to `O=C(Nc1ccc(-c2noc(CCc3ccccc3)n2)cc1)c1ccco1`, for which, on Protein skinhead-1, the IC50 is > 100 µM (inactive).

`CCOC(=O)c1ccc(-n2[nH]c(-c3ccccc3)cc2=O)cc1`: the figures for the EC50 (in assay [6]; on Protein RecA) were > 195 µM (not active) and 2.25 µM (active), respectively. Further, the AC50 is 3.43 µM (active) in [8] and 5.35 µM (active) in assay [2].
